Test results from publication PMC7368294 (Proceedings of the National Academy of Sciences of the …, 2020).

Key:
Experiment in all cases: cell-based
Parameters in all cases: species or system Xenopus laevis oocytes
Dα1/Dα2/Dβ1/Dβ2 nAChR = Dα1/Dα2/Dβ1/Dβ2 nAChR (Drosophila melanogaster, UniProt P04755+P09478+P17644+P25162)
Dα1/Dβ1/Dβ2 nAChR = molecular target: T1, Dα1/Dβ1/Dβ2 nAChR (Drosophila melanogaster, UniProt P04755+P09478+P25162)
T1 sequence (P09478 22-567): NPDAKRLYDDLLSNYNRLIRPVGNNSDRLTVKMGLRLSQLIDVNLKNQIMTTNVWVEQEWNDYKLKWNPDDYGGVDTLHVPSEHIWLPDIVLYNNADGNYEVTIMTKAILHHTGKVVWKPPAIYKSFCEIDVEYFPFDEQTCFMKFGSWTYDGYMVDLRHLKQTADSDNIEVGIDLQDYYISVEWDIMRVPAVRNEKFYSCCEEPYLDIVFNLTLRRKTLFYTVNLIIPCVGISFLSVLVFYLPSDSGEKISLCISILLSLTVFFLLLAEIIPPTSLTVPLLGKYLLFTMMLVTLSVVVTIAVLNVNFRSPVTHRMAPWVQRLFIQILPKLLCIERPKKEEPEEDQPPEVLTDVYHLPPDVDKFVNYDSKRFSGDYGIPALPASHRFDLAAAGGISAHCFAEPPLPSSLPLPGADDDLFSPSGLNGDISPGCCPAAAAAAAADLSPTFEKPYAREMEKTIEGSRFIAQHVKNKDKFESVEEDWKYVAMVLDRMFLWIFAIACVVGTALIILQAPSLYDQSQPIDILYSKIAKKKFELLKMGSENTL
T1 sequence (P04755 25-521): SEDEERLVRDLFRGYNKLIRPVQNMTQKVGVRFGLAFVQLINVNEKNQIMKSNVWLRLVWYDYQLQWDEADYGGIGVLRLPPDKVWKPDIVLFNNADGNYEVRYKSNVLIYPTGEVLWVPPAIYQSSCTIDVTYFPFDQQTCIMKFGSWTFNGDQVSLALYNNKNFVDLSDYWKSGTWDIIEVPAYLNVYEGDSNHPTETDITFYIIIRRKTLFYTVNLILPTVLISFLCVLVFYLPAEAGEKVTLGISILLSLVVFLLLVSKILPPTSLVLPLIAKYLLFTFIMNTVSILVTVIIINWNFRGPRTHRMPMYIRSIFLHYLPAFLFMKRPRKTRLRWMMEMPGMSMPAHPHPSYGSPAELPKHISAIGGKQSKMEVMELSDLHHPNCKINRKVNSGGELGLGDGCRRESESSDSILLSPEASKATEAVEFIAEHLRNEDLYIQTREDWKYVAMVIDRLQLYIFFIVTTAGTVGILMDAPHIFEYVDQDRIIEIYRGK
T1 sequence (P25162 19-519): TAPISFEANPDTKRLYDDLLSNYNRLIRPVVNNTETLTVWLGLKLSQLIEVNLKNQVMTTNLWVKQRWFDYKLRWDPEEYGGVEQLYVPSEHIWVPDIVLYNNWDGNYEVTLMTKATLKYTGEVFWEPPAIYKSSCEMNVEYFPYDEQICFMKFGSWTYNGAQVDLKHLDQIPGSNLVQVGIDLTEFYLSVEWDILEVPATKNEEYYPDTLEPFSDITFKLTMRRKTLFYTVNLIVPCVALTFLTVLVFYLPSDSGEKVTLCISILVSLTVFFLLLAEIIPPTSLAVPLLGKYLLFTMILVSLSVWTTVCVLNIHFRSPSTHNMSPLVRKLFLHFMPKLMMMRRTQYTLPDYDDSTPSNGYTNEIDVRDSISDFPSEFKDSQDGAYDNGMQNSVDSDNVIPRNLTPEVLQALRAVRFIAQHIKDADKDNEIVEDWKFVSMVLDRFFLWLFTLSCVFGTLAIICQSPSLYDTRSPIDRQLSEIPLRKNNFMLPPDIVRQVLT

Dα1/Dβ1 nAChR = molecular target: T2, Dα1/Dβ1 nAChR (Drosophila melanogaster, UniProt P04755+P09478)
T2 sequence (P09478 22-567): T1 sequence (P09478 22-567)
T2 sequence (P04755 25-521): T1 sequence (P04755 25-521)

Structure (SMILES) | EC50 (Dα1/Dα2/Dβ1/Dβ2 nAChR) | EC50 (Dα1/Dβ1/Dβ2 nAChR) | EC50 (Dα1/Dβ1 nAChR)
CN/C(=N\[N+](=O)[O-])NCc1cnc(Cl)s1 [clothianidin] | 309 nM | 219 nM | –
O=[N+]([O-])NC1=NCCN1Cc1ccc(Cl)nc1 [imidacloprid] | – | – | 174 nM
